Measurements reported in patent US20240024273A1, “TOPICAL ADMINISTRATION OF 2-(DIETHYLAMINO)ETHYL 2-(4-ISOBUTYLPHENYL)PROPRIONATE FOR TREATMENT OF DISEASES” (TECHFIELDS PHARMA CO., LTD., priority 2020, published 2024).

Test system: Mild to Moderate Osteoarthritis of the Knee
Assay: Phase 2 study: WOMAC (VAS) pain subscale score, target knee
Format: in vivo, human
Conditions: for WOMAC Pain Subscale Score, Avg.: Avg. of all patients; for WOMAC Pain Subscale Score, Avg. / WOMAC Pain Subscale Score: blinded, High Dose (8 spray/knee, 35 mg/knee) Cohort; for WOMAC Pain Subscale Score, cohort Avg.: low dose cohort 8.75 mg/knee BID, blinded (active + placebo), Day 1 Avg. 59.8; for difference of LS mean (8.75 mg-control), change from baseline in WOMAC pain subscale score / Change from baseline in WOMAC pain subscale score, LS mean (95% ci): Group A, 8.75 mg/knee; for difference of LS mean (8.75 mg-control), change from baseline in WOMAC pain subscale score / difference of LS mean (testing Drug-control), change from baseline in WOMAC pain subscale score: bid vs placebo; for Change from baseline in WOMAC pain subscale score, LS mean (95% ci) / Change from baseline in WOMAC pain subscale score, LS mean: bid; for difference of LS mean (testing Drug-control), change from baseline in WOMAC pain subscale score / Change from baseline in WOMAC pain subscale score, LS mean: Group C, 35 mg/knee; for WOMAC Pain Subscale Score: individual patient
Excerpt: This is a Phase 2, multicenter, randomized, double blind (within dose), placebo controlled, parallel group, proof of concept, and dose range finding study to evaluate the efficacy, safety, and PK of 2-(diethylamino)ethyl 2-(4-isobutylphenyl)propionate hydrochloride spray in adult subjects with clinically symptomatic mild to moderate OA of the knee. For subjects with bilateral knee pain, both knees will be treated, but the most symptomatic knee (i.e., the most painful knee as measured by the Western Ontario and McMaster University Osteoarthritis Index [WOMAC® 3.1] pain subscale score at Screening) will be designated as the target knee for efficacy analyses. For subjects with unilateral knee pain, only the symptomatic (target) knee will be treated.
After a Screening Period of up to 3 weeks and radiographic evaluation of the target knee joint space, a subject will be randomly assigned to 1 of 3 treatment groups in a 1:1:1 ratio with a 2:1 ratio of active:placebo within each treatment group (ie, 2 subjects to active treatment and 1 subject to placebo): • Group A: 8.75 mg 2-(diethylamino)ethyl 2-(4-isobutylphenyl)propionate/knee (2 sprays/knee, one spray to the medial surface and one spray to the lateral surface of the knee), twice daily (BID, approximately every 12 hours; n=50) or placebo (2 sprays/knee), BID (approximately every 12 hours; n=25) for a total of 4 sprays per knee per day; • Group B: 17.5 mg 2-(diethylamino)ethyl 2-(4-isobutylphenyl)propionate/knee (4 sprays/knee, one spray to the medial surface and one spray to the lateral surface of the knee, and one spray to front and one spray to the back of the knee), BID (approximately every 12 hours; n=50) or placebo (4 sprays/knee), BID (approximately every 12 hours; n=25) for a total of 8 sprays per knee per day; • Group C: 35 mg 2-(diethylamino)ethyl 2-(4-isobutylphenyl)propionate/knee (8 sprays/knee, each spray is to be applied to a different non-overlapping area around the knee, and the areas are to be uniformly distributed around the knee), BID (approximately every 12 hours; n=50) or placebo (8 sprays/knee), BID (approximately every 12 hours; n=25) for a total of 16 sprays per knee per day.
The VAS version of the WOMAC will be used for the Primary and Secondary Efficacy Endpoints. Efficacy endpoints will be assessed at Screening and Baseline (Day 1) and at the Week 2, Week 4, Week 8, and Week 12/EOS visits.
The Primary Efficacy Endpoint is the change from Baseline in the WOMAC (VAS) pain subscale score for the target knee at […] of treatment.
3.9.2. Secondary Efficacy Endpoints: • 1. Change from Baseline in the WOMAC (VAS) pain subscale score for the target knee at 2, 4, and 8 weeks of treatment; • 2. Change from Baseline in the WOMAC (VAS) stiffness subscale scores for the target knee and WOMAC (VAS) functional ability subscale scores at 2, 4, 8, and 12 weeks of treatment; • 3. Change from Baseline in the overall WOMAC (VAS) score at 2, 4, 8, and 12 weeks of treatment.
The Primary Efficacy Endpoint is change from Baseline in the WOMAC (VAS) pain subscale score for the target knee at 4 weeks of treatment, and will be analyzed using an analysis of covariance (ANCOVA). Treatment will be included as a fixed class effect and WOMAC Baseline pain subscale score as covariates. The primary comparisons of interest will be the difference between active Group A (8.75 mg 2-(diethylamino)ethyl 2-(4-isobutylphenyl)propionate/knee) and combined placebo, active Group B (17.5 mg 2-(diethylamino)ethyl 2-(4-isobutylphenyl)propionate/knee) and combined placebo, and active Group C (35 mg 2-(diethylamino)ethyl 2-(4-isobutylphenyl)propionate/knee) and combined placebo. […]

SMILES: CCN(CC)CCOC(=O)C(C)c1ccc(CC(C)C)cc1 (stereo not drawn) [2-(diethylamino)ethyl 2-(4-isobutylphenyl)propionate]
- reduction of pain WOMAC from baseline to week 12 (5 patients on second batch active drug kits): 81-98%
- WOMAC Pain Subscale Score, Avg. (Day 1): 59.2
- WOMAC Pain Subscale Score, Avg. (Follow-up): 35.2
- WOMAC Pain Subscale Score, Avg. (Week 2): 46.6
- WOMAC Pain Subscale Score, Avg. (Week 4): 41.5
- WOMAC Pain Subscale Score, Avg. (Week 8): 37.0
- WOMAC Pain Subscale Score, Avg. (Week 12): 33.8
- WOMAC Pain Subscale Score, cohort Avg. (Follow-up): 39.7
- difference of LS mean (8.75 mg-control), change from baseline in WOMAC pain subscale score (Week 2): 6.7 mm
- difference of LS mean (8.75 mg-control), change from baseline in WOMAC pain subscale score (Week 4): 10.5 mm
- difference of LS mean (8.75 mg-control), change from baseline in WOMAC pain subscale score (Week 8): 7.9 mm
- difference of LS mean (8.75 mg-control), change from baseline in WOMAC pain subscale score (Week 12/EOS): 8.6 mm
- Change from baseline in WOMAC pain subscale score, LS mean (95% ci) (Week 2): −7.5 (−13.3, −1.7) mm
- Change from baseline in WOMAC pain subscale score, LS mean (95% ci) (Week 4): −10.6 (−17.1, −4.1) mm
- Change from baseline in WOMAC pain subscale score, LS mean (95% ci) (Week 8): −15.7 (−22.5, −8.8) mm
- Change from baseline in WOMAC pain subscale score, LS mean (95% ci) (Week 12/EOS): −16.1 (−23.6, −8.6) mm
- difference of LS mean (testing Drug-control), change from baseline in WOMAC pain subscale score (Week 2): −11.5 mm
- difference of LS mean (testing Drug-control), change from baseline in WOMAC pain subscale score (Week 4): −12.8 mm
- difference of LS mean (testing Drug-control), change from baseline in WOMAC pain subscale score (Week 8): −6.0 mm
- difference of LS mean (testing Drug-control), change from baseline in WOMAC pain subscale score (Week 12/EOS): −4.1 mm
- Change from baseline in WOMAC pain subscale score, LS mean (Week 2): −15.6 mm
- Change from baseline in WOMAC pain subscale score, LS mean (Week 4): −21.2 mm
- Change from baseline in WOMAC pain subscale score, LS mean (Week 8): −24.0 mm
- Change from baseline in WOMAC pain subscale score, LS mean (Week 12/EOS): −26.9 mm
- WOMAC Pain Subscale, WOMAC VAS Score (Patient 1056, second batch active drug kits, Day 1): 51.8 mm
- WOMAC Pain Subscale, WOMAC VAS Score (Patient 1056, second batch active drug kits, Follow Up): 10.0 mm
- WOMAC Pain Subscale, WOMAC VAS Score (Patient 1056, second batch active drug kits, Week 2): 31.0 mm
- WOMAC Pain Subscale, WOMAC VAS Score (Patient 1056, second batch active drug kits, Week 4): 22.6 mm
- WOMAC Pain Subscale, WOMAC VAS Score (Patient 1056, second batch active drug kits, Week 8): 28.0 mm
- WOMAC Pain Subscale, WOMAC VAS Score (Patient 1056, second batch active drug kits, Week 12): 12.0 mm
- WOMAC Pain Subscale, WOMAC VAS Score (Patient 1064, second batch active drug kits, Day 1): 32.6 mm
- WOMAC Pain Subscale, WOMAC VAS Score (Patient 1064, second batch active drug kits, Follow Up): 1.6 mm
- WOMAC Pain Subscale, WOMAC VAS Score (Patient 1064, second batch active drug kits, Week 2): 21.6 mm
- WOMAC Pain Subscale, WOMAC VAS Score (Patient 1064, second batch active drug kits, Week 4): 1.8 mm
- WOMAC Pain Subscale, WOMAC VAS Score (Patient 1064, second batch active drug kits, Week 8): 1.0 mm
- WOMAC Pain Subscale, WOMAC VAS Score (Patient 1064, second batch active drug kits, Week 12): 0 mm
- WOMAC Pain Subscale, WOMAC VAS Score (Patient 1535, second batch active drug kits, Day 1): 40.4 mm
- WOMAC Pain Subscale, WOMAC VAS Score (Patient 1535, second batch active drug kits, Follow Up): 0.0 mm
- WOMAC Pain Subscale, WOMAC VAS Score (Patient 1535, second batch active drug kits, Week 2): 2.8 mm
- WOMAC Pain Subscale, WOMAC VAS Score (Patient 1535, second batch active drug kits, Week 4): 2.6 mm
- WOMAC Pain Subscale, WOMAC VAS Score (Patient 1535, second batch active drug kits, Week 8): 4.0 mm
- WOMAC Pain Subscale, WOMAC VAS Score (Patient 1535, second batch active drug kits, Week 12): 0.6 mm
- WOMAC Pain Subscale, WOMAC VAS Score (Patient 1539, second batch active drug kits, Day 1): 63.0 mm
- WOMAC Pain Subscale, WOMAC VAS Score (Patient 1539, second batch active drug kits, Follow Up): 5.0 mm
- WOMAC Pain Subscale, WOMAC VAS Score (Patient 1539, second batch active drug kits, Week 2): 47.6 mm
- WOMAC Pain Subscale, WOMAC VAS Score (Patient 1539, second batch active drug kits, Week 4): 48.2 mm
- WOMAC Pain Subscale, WOMAC VAS Score (Patient 1539, second batch active drug kits, Week 8): 1.8 mm
- WOMAC Pain Subscale, WOMAC VAS Score (Patient 1539, second batch active drug kits, Week 12): 9.4 mm
- WOMAC Pain Subscale, WOMAC VAS Score (Patient 9032, second batch active drug kits, Day 1): 16.6 mm
- WOMAC Pain Subscale, WOMAC VAS Score (Patient 9032, second batch active drug kits, Follow Up): 3.0 mm
- WOMAC Pain Subscale, WOMAC VAS Score (Patient 9032, second batch active drug kits, Week 2): 11.2 mm
- WOMAC Pain Subscale, WOMAC VAS Score (Patient 9032, second batch active drug kits, Week 4): 6.2 mm
- WOMAC Pain Subscale, WOMAC VAS Score (Patient 9032, second batch active drug kits, Week 8): 4.4 mm
- WOMAC Pain Subscale, WOMAC VAS Score (Patient 9032, second batch active drug kits, Week 12): 3.2 mm
- WOMAC Pain Subscale Score, cohort Avg. (Week 2): 48.6
- WOMAC Pain Subscale Score, cohort Avg. (Week 4): 42.8
- WOMAC Pain Subscale Score, cohort Avg. (Week 8): 38.4
- WOMAC Pain Subscale Score, cohort Avg. (Week 12): 38.2
- WOMAC Pain Subscale Score (Day 1): 59.4
- WOMAC Pain Subscale Score (Follow-up): 67.0
